Patent US20150272944A1, “NOVEL TRIGLYCERIDE REDUCING AGENT” (KOWA COMPANY, LTD., priority 2005, published 2015)
Like-named read-outs stand apart in the source and are kept apart here.

How the values were obtained:
[1] = Plasma TG lowering effect in rats after 14 days repeated oral administration, blood taken after 22-hours fasting; assay type: in vivo, Wistar rat; conditions: single agent alone, rat, pitavastatin calcium 10 mg/kg, K-134 or cilostazol 100 mg/kg
Excerpt: To test effects of combination administration of the said agents, rats were used for the experiment. […] The vertical axis in FIG. 1 indicates concentration of plasma triglyceride (TG) (mg/dL). Administration groups: control; pitavastatin calcium (referred to as pitavastatin) alone; K-134 alone; cilostazol alone; combination of pitavastatin calcium (referred to as pitavastatin) and K-134; and combination of pitavastatin calcium (referred to as pitavastatin) and cilostazol, are listed from left to right.
Plasma TG lowering effect when pitavastatin calcium was administered in combination with K-134 or cilostazol was measured according to the following method 1-4.
A 7-week-old Wistar rat (CLEA Japan, Inc.) was housed in an animal room where light/dark cycle (light period with room lighting from 7.00 to 19.00), temperature of 23±3° C., and humidity of 55±15% were maintained through the experimental period, and solid feed (CLEA Japan, Inc.) and tap water were consumed freely.
Pitavastatin calcium, K-134 and cilostazol were each suspended in aqueous solution (1.0 mass %) of hydroxypropyl methyl cellulose (Shin-Etsu Chemical Co., Ltd.) and prepared in order that the administration dose was 1 mL/kg. The suspension was stored in a colored bottle and refrigerated at 4° C. Preparation was performed every seven days.
3. Test Method 36 rats were divided into 6 administration groups (each group consisted of 6 samples): (1) control; (2) pitavastatin calcium (10 mg/kg) alone; (3) K-134 (100 mg/kg) alone; (4) cilostazol (100 mg/kg) alone; (5) combination of pitavastatin calcium (10 mg/kg) and K-134 (100 mg/kg); and (6) combination of pitavastatin calcium (10 mg/kg) and cilostazol(100 mg/kg).
Pitavastatin was orally administered once daily at 4.00 pm for 14 days repeatedly, and K-134 or cilostazol was orally administered twice daily at 9.00 am and 4.00 pm for 14 days repeatedly. […] Blood sample was taken from each group after 22-hours fasting following the final administration in the afternoon, and plasma TG was measured. […]

[2] = normal rat; cited from earlier work
[3] = clinical report, cited from earlier work
[4] = diabetic rat; cited from earlier work

For O=C(NCCCOc1ccc2[nH]c(=O)ccc2c1)N(C1CC1)[C@@H]1CCCC[C@H]1O [K-134, (−)-6-[3[3-cyclopropyl-3-[(1R, 2R)-2-hydroxycyclohexyl]ureido]-propoxy]-2-(1H)-quinolinone], the “hypotriglyceridemic effect in vivo” value [1] was “little hypotriglyceridemic effect”.

For O=C(O)C[C@H](O)C[C@H](O)/C=C/c1c(C2CC2)nc2ccccc2c1-c1ccc(F)cc1 [pitavastatin, (3R, 5S, 6E)-7-[2-cycloropyl-4-(4-fluorophenyl)-3-quinolyl]-3,5-dihydroxy-6-heptenoic acid], the “hypotriglyceridemic effect in vivo” value [1] was “extremely weak”.

For O=C1CCc2cc(OCCCCc3nnnn3C3CCCCC3)ccc2N1 [cilostazol], the “hypotriglyceridemic effect in vivo” value [1] is listed as “little hypotriglyceridemic effect”, the hypotriglyceridemic effect [2] is listed as “unstable” and the TG level ([3]; 4-week administration in a subject) is listed as “lowered”. The TG level ([3]; 24-week administration) was “return to former value after transient elevation” and the hypotriglyceridemic effect [4] was “hypotriglyceridemic effect is reported”.
